Measured values as given in patent US20030056232A1, “Animal showing schizophrenia-like abnormality in cognitive behaviors and method of constructing the same” (priority 2000, published 2003).

Key:
Format in all cases: in vivo, rat
[1] = test system: SD rats; experiment: Prepulse inhibition (PPI) of acoustic startle response; details: for prepulse inhibition, EGF administrated group vs cytochrome-C administered group: EGF 1.75 mg/kg s.c. five times P2-P10, p<0.05; for effect on prepulse inhibition in EGF administered rats: administration for one week, test 23 hours after the final administration, haloperidol 0.3 mg/kg peritoneal (FIG. 4A); for prepulse inhibition of EGF administered group under clozapine (EGF CZP) vs cytochrome-C group (Cont CZP): peritoneal, everyday from postnatal day 21
From the text: As the method used to evaluate the sensorimotor and behavioral abnormalities, behavioristic measurements such as prepulse inhibition of startle response, latent inhibition, social interaction, motor activity of the animal, can be mentioned. The prepulse inhibition of startle response is a test to evaluate the ability of perception-motor activity, using the startle response as an index and the startle response can be evaluated in human being and animal in common. In this test, evaluation of attention deficit and abnormality in information processing in brain can be achieved scientifically and objectively. These are considered to be the main factors involved in schizophrenic pathology. […] This test is carried out by measurement of such reaction. Such decrease caused by the prepulse is called “prepulse inhibition”.
(§1) SD rats (Nippon SLC) from postnatal day 2 were used as the test animals. Human recombinant epidermal growth factor (EGF; Higeta Shoyu) and cytochrome-C (Sigma) were dissolved in physiological saline at 70 μL/mL. From postnatal day 2, 25 μL of the solution per 1 g of the body weights of rats (each 1.75 mg/kg) was subcutaneously administered to the rat at the nape of the neck every other day. This operation was repeated five times until postnatal day 10. From postnatal day 21, the startle response and the prepulse inhibition were measured in a startled chamber (San diego Instruments). That is, acoustic stimulus was used as the sensory stimulation to induce startle response. As a prepulse, acoustic stimuli at the intensity 5 to 15 db above the environmental noise (background noise) was given. After 100 milliseconds, a pulse stimuli at the intensity of 120 db was given. The extent of the response obtained under combination of prepulse and 120 db was divided by that obtained under 120 db alone (%) to obtain response ratio. The response ratio was subtracted from 100 and it was designated prepulse inhibition (PPI). The calculation formula used to calculate the prepulse inhibition (PPI) is shown below. [formula]
The effect of 8-Chloro-11-(4-methyl-1-piperazinyl)-5H-dibenzo[b,e][1,4]-diazepine (clozapine: Sigma-Aldrich Fine Chemical Co.Ltd.), recognized to be a therapeutic agent for schizophrenia of human beings, was evaluated on the present model animal to evaluate the adequacy of this model. To the human recombinant EGF administered group and the control group (cytochrome-C administered), clozapine was peritoneally administrated everyday. This administration was performed from postnatal day 21 and chronic abnormality of prepulse inhibition firstly occurs around this period. The prepulse inhibition (PPI) was measured at the postnatal days 30 (P30), 33 (P33) and 37 (P37) (FIG. 3). The result at postnatal day 30 (P30) is shown in FIG. 3A, the result at postnatal day 33 (P33) is shown in FIG. 3B, and the result at postnatal day 37 (P37) is shown in FIG. 3C, respectively.
Moreover, the effect of 4-(4-[p-Chlorophenyl]-4-hydroxypiperidino)-4′-fluorobutyrophenone (Haloperidol: Sigma-Aldrich Fine Chemical Co.Ltd.) was also evaluated. Haloperidol was peritoneally administrated at a dose of 0.3 mg/kg. In FIG. 4, investigation was performed on the four groups of: (1) the control rats group (CON/VEH) with saline administration (as a vehicle), (2) the EGF administrated/saline injected group (EGF/VEH, n=10), (3) the EGF administered/clozapin injected group (EGF/CLP, n=10) and (4) the EGF administered/haloperidol injected group (EGF/HPD, n=6). The administration of saline, clozapine and haloperidol continued for one week. Twenty-three hours after the final administration, the test was performed on the rats of the respective group.

[2] = test system: SD rats; experiment: Startle response to acoustic stimuli of 120 db; details: % in comparison with CON/VEH group (FIG. 4B)
Method: as §1, with “The response ratio was subtracted from 100 and it was designated prepulse inhibition (PPI). The calculation formula used to calculate the prepulse inhibition (PPI) is shown below. [formula]” left out
The results of the prepulse inhibition (FIG. 2A) and the startle response (FIG. 2B) analyzed in accordance to postnatal days are shown in FIG. 2. […]
Moreover, the effect of 4-(4-[p-Chlorophenyl]-4-hydroxypiperidino)-4′-fluorobutyrophenone (Haloperidol: Sigma-Aldrich Fine Chemical Co.Ltd.) was also evaluated. […]

[3] = test system: SD rats; experiment: Motor activity: line crossing (horizonal activity) and rearing (vertical activity); details: for effect on vertical activity of the EGF rat groups: chronic administration for three weeks, tested 48 hours after the final administration, p<0.05 vs EGF/VEH
Method: The locomotor activities of the animals were measured at postnatal days 24 and 52. At postnatal day 24, it was measured using automated Activity Monitor (Neuro Science). At postnatal day 53, using a box having the size of 51×51×80 cm with lines of every 17 cms, the number of line crossing (horizonal activity) and the number of learing counts (vertical activity) within 10 minutes were measured.
The mean numbers (±SEM) of horizonal activity (Line Cross) and vertical activity (Rearing) at postnatal days 24 (P24) and 52 (P52) are shown in FIG. 5. FIG. 5A is the result obtained at postnatal day 24 (n=15, 8 males and 7 females) and FIG. 5B is the result obtained at postnatal day 52 (n=10, 5 males and 5 females). In FIG. 5, the left vertical axis indicates the number of the horizonal activity, while the right vertical axis indicates the number of the vertical activity. The left columns indicate the number of line crossing and the right columns indicate the number of learing counts, respectively. Moreover, the white columns indicate the control group (CON) and the black columns indicate the epidermal EGF administrated group, respectively.
The effect of anti-psychotic medicine on motor activity was also investigated using rats of postnatal day 52. The results investigated on four groups are shown in FIG. 6, namely 1) the control rats group (CON/VEH) with saline administration as a vehicle, (2) the EGF administrated/saline injected group (EGF/VEH, n=10), (3) the EGF administered/clozapin injected group (EGF/CLP, n=10) and (4) the EGF administered/haloperidol injected group (EGF/HAL, n=6). The same numbers of male and female are used in each of the groups. Saline, haloperidol and clozapine were administrated for three weeks, and each group was tested 48 hours after the final administration. Moreover, the asterisk mark (*) and the sharp mark (#) indicate significant difference as compared with the CON/VEH group and EGF/VEH group, respectively (* p<0.05, #p<0.05). […] Meanwhile, administration of these medicines was not effective on the horizonal activity.

[4] = test system: SD rats; experiment: Social interaction test (sniffing behavior against unfamiliar partner); details: postnatal day 52; for effect on reduced sniffing behavior in the EGF administrated group: pretreated for three weeks, test 48 hours after the final injection
From the text: Social interaction test is a test that makes an index of the schizophrenic patient's trait that they dislike to make contact with other individuals and keeps away from society, can be made to an index. In general, the sniffling behavior of the animals, usually observed when an animal meets to an unknown individual, is observed. In general, in schizophrenic patients and in schizophrenic model animals, decrease of this behavior has been reported.
Moreover, the abnormality in social interaction of the EGF administrated rats was investigated according to the method of File et al. Using two rats of postnatal day 52, sniffling behavior between two rats was observed and the time of sniffling behavior was used as an index of anxiety. […] In concrete, the sniffling behavior was observed under high light level and unfamiliar condition in the opened space. The both groups of animals are videotaped and sniffing behaviors of the animals against those of the partner was recorded (FIG. 7).
In FIG. 7, the mean times (±SEM) of the sniffing behavior were shown. The investigation was performed on the four groups of (1) the control rats group (CON/VEH) with saline administration as a vehicle, (2) the EGF administrated/saline injected group (EGF/VEH, n=10), (3) the EGF administered/clozapin injected group (EGF/CLOZ, n=10) and (4) the EGF administered/haloperidol injected group (EGF/HAL, n=6). The EGF administrated rats were pretreated by clozapine or haloperidol for three weeks and the test was performed after 48 hours of the final injection on each group. The asterisk marks indicate significant difference as compared with the CON/VEH group (** p<0.01). […] Moreover, the reduced sniffing behavior in the EGF adinistrated group recovered by injection of clozapine (EGF/CLOZ). Meanwhile, halopelidol was not effective to recover the sniffing behavior (EGF/HAL).

[5] = test system: SD rats; experiment: Active avoidance response in shuttle box (learning ability)
Method: Furthermore, the learning ability was investigated by active avoidance response. The active avoidance test was performed in a shuttle box, using rats of postnatal day 51-60 (10 trials/day). The conditioning stimulus (CS) adopted here was a stimuli by noise of 80 dB tone and room light for 5 s. When the CS was on, the test animals had to cross the other side of the shuttle box apparatus (avoidance response) in order to turn it off and avoid the appearance of the unconditioned stimulus (US) described below. As the US, an electric shock by conducting 0.6-mA intensity of constant current for 10 s was utilized. Moreover, the test animals were investigated whether they are capable of avoiding the electrical shock by learning.
In FIG. 8, the percentages (±SEM) of the avoidance response are shown. In FIG. 8, the open circle symbols indicate cytochrome-c treated control group (CON: n=10), and the closed triangle symbols indicate EGF-treated group (EGF: n=10), respectively. […] There was also no difference between these two groups in the latency of response or the number of crossings between the two sides of the shuttle box.

[6] = postnatal day 51-60, n=10 per group

Row | Compound | prepulse inhibition, EGF administrated group vs cytochrome-C administered group ([1]; postnatal day 30, prepulse intensities 80 db and 85 db) | prepulse inhibition, EGF administrated group vs cytochrome-C administered group ([1]; postnatal day 33, prepulse intensities 80 db and 85 db) | prepulse inhibition, EGF administrated group vs cytochrome-C administered group ([1]; postnatal day 37, prepulse intensities 75 db, 80 db and 85 db) | prepulse inhibition and startle response in accordance to postnatal days, EGF group vs cytochrome-C control group ([1]; prepulse 75 db, postnatal days 21, 28, 30, 37, 46, 51, 60 and 90, n=10 per group (FIG. 2)) | startle response against acoustic stimuli of 120 db, EGF administered groups vs CON/VEH group [2] | number of horizonal activity (line cross), EGF group vs cytochrome-C group (CON) ([3]; postnatal day 24, n=15) | number of vertical activity (rearing), EGF group vs cytochrome-C group (CON) ([3]; postnatal day 24, n=15) | number of vertical activity (rearing), EGF group vs cytochrome-C group ([3]; postnatal day 52, n=10, counts within 10 minutes) | sniffing behavior against the unfamiliar partner, EGF/VEH vs control rats ([4]; high light level, unfamiliar condition, p<0.01) | learning ability of the EGF-treated rats ([5]; adult phase (postnatal day 51-60)) | ability to escape from the electric shock, EGF-treated group vs cytochrome-c control group ([5]; postnatal day 51-60, 10 trials/day, n=10 per group) | latency of response, EGF-treated group vs control group [5, 6] | number of crossings between the two sides of the shuttle box, EGF-treated group vs control group [5, 6] | effect on prepulse inhibition in EGF administered rats ([1]; prepulse 75 db) | effect on vertical activity of the EGF rat groups ([3]; postnatal day 52) | effect on reduced sniffing behavior in the EGF administrated group [4] | prepulse inhibition of EGF administered group under clozapine (EGF CZP) vs cytochrome-C group (Cont CZP) ([1]; postnatal day 30, 9th day of clozapine treatment) | prepulse inhibition of EGF administered group under clozapine (EGF CZP) vs cytochrome-C group (Cont CZP) ([1]; postnatal day 33) | prepulse inhibition of EGF administered group under clozapine (EGF CZP) vs cytochrome-C group (Cont CZP) ([1]; postnatal day 37)
1 | EGF: Human recombinant epidermal growth factor (Higeta Shoyu), protein factor administered to juvenile rats to prepare the schizophrenic model animal (NSDSECPLSHDGYCLHDGVCMYIEALDKYACNCVVGYIGERCQYRDLKWWELR; Epidermal growth factor; UniProt P01133 971-1023, looked up) | significant decrease | significant decrease | significant decrease | significant difference was recognized after postnatal day 28 | significant stronger | no significant difference | no significant difference | significant difference was observed | reduced significantly | appeared to be normal | no difference | no difference | no difference | – | – | – | – | – | –
2 | O=C(CCCN1CCC(O)(c2ccc(Cl)cc2)CC1)c1ccc(F)cc1 [haloperidol, 4-(4-[p-Chlorophenyl]-4-hydroxypiperidino)-4′-fluorobutyrophenone] | – | – | – | – | – | – | – | – | – | – | – | – | – | such effect was not observed | decreased significantly | not effective | – | – | –
3 | CN1CCN(C2=Nc3cc(Cl)ccc3Nc3ccccc32)CC1 [clozapine, 8-Chloro-11-(4-methyl-1-piperazinyl)-5H-dibenzo[b,e][1,4]-diazepine] | – | – | – | – | – | – | – | – | – | – | – | – | – | significant improvement in prepulse inhibition | decreased significantly | recovered | significant abnormality in the prepulse inhibition remained | significant difference in prepulse inhibition of the EGF administered group (EGF CZP) disappeared | significant difference in prepulse inhibition of the EGF administered group (EGF CZP) disappeared
